System: A/CK/ANYANG/MS96 (H9N2)
Design: species or system low-pathogenic avian influenza H9N2 serotype virus

## CCOC(=O)C1=C[C@@H](OC(CC)CC)[C@H](NC(C)=O)[C@@H](N)C1 [Tamiflu, Oseltamivir phosphate]
  HA positive (eggs): 0/3
  HA titer: 0
  antiviral activity (virus detection in sensitized and inoculated eggs): showed antiviral activity

— patent US20200190464A1, “NOVEL LAC[…] ANTIVIRAL EFFECT AND COMPOSITION THEREOF” (priority 2017, published 2020)
